Measurements: PMC8397403, “Physiologically Based Pharmacokinetic Modeling of Transporter-Mediated Hepatic Disposition of Imaging Biomarker Gadoxetate in Rats” (Molecular Pharmaceutics, 2021)
Marks after values point to notes of the source that are not given here.

Experiment: Bottom-up IVIVE of gadoxetate transporter kinetic data / PBPK model
Parameters: species or system rat
Description: IVIVE of gadoxetate CLactive,u and CLpassive,u was performed by scaling these parameters to in vivo values (CLactive,u,in vivo and CLpassive,u,in vivo; mL/min/kg body weight) using a hepatocellularity of 120 × 10^6 cells/g liver,[34] and a liver weight (wliver) of 40 g/kg body weight,[38] as in eq 3. [drawing 3] 3
A reduced PBPK model was developed to describe the PK of gadoxetate in rats; a permeability-limited liver model was implemented capturing relevant processes, as done previously.[6],[41] The compartments represent the blood, spleen, splanchnic organs, liver interstitial space, hepatocytes, and the rest of the body (ROB) vascular and extravascular spaces. The ROB compartment includes muscles, skin, bones, and fat among others. Details of model equations and physiological parameters values are reported in the Supporting Information, Sections 2, 3, and 5.
Standard kinetic models used for MRI contrast agents generally describe the organs by using three compartments: plasma, interstitial, and intracellular spaces.[12],[42],[43] Gadoxetate distributes only in the extracellular space of all the organs; liver is the exception, where gadoxetate undergoes active uptake into the hepatocytes.[44] Therefore, in the gadoxetate PBPK model, the volume of all the compartments, except the blood and the liver, corresponded to the organ extracellular space, that in turn was considered to be composed of the blood within the organ and the interstitial space. For highly vascularized and perfused organs with fenestrated capillaries (e.g., liver), the exchange between the plasma and the interstitial space is generally considered to be fast.[12],[19] Therefore, for liver, spleen, and splanchnic compartments, the extracellular volumes were considered to be the sum of the blood within the organ and the interstitial space volumes. […] A permeability limitation between the vascular and interstitial space was, therefore, assumed for the ROB compartment, as shown in eq 5. [drawing 5] 5 cb, crob,v and crob,ev [μmol/L] are the gadoxetate concentration in blood and ROB vascular and extravascular compartments; Vrob,v and Vrob,ev [L] are the ROB vascular and extravascular compartment volumes, respectively; and PS [L/h] is the permeability surface product.
To describe the gadoxetate-active uptake into the hepatocytes, a permeability-limited liver model was used, as shown in eq 6. [drawing 6] 6 inputsplan [μmol/h] represent the venous input from the splanchnic organs, while inputart [μmol/h] is the input from the hepatic artery; cliv,extr and cliv,cell [μmol/L] are the drug concentrations in the extracellular liver (tissue blood plus interstitial space) and in the hepatocytes, respectively; Vliv,extr and Vliv,int [L] are the extracellular and hepatocytes liver volumes; Qh [L/h] is the liver blood flow; Kliv,extr-b is the extracellular liver to blood partition coefficient; CLactive and CLpassive [L/h] are the active and passive clearances across the hepatocytes cell membrane; CLbiliary [L/h] is the clearance representing the excretion from the hepatocytes into the bile; and fu,liv,cell is the gadoxetate fraction unbound in the hepatocytes (obtained from the in vitro generated data fu,cell). Recent PBPK studies of hepatic transporter substrates have used a 5-compartment liver model[45] and the use of this particular liver model was also explored in the current PBPK modeling.
All the parameters were initially obtained using literature values and in vitro experiments. Prospective transporter clearance IVIVE was performed with the aim of predicting the gadoxetate ΔR1 in blood, spleen, and liver after administration of gadoxetate alone (in the absence of an inhibitor). CLactive, CLpassive, and fu,liv,cell were obtained from the in vitro experimental values obtained in this study, as detailed in the section “Data Analysis and Quantitative Translation”. CLr was fixed to a literature value, as in Table 3. […]

[1] = scaled from in vitro, 120 × 10^6 cells/g liver, 40 g liver/kg

Compound: CCOc1ccc(C[C@@H](CN(CCN(CC(=O)[O-])CC(=O)[O-])CC(=O)[O-])N(CC(=O)[O-])CC(=O)[O-])cc1.[Gd+3].[H+].[H+] [gadoxetate]
- CLbiliary, bottom-up scaled value (Monte Carlo mean, value assumed equal to CLpassive): 0.014 ^a^, ^c L/h
- CLactive, bottom-up scaled value (mean value calculated from the Monte Carlo analysis, rat 0.25 kg): 0.23 ^a L/h
- PS, bottom-up scaled value (permeability surface product, Monte Carlo mean, value assumed equal to CLpassive): 0.014 ^a^, ^c L/h
- predicted in vivo active uptake clearance (CLactive,u,in vivo) [1]: 14.7 mL/min/kg body weight
- predicted in vivo passive clearance (CLpassive,u,in vivo) [1]: 0.93 mL/min/kg body weight
- CLpassive (scaled from the mean in vitro value in Table 2, fixed in PBPK model): 0.014 L/h
